According to patent US20080274998A1, “Disaccharide Molecules and Derivatives Thereof and Methods of Using Same” (YEDA RESEARCH AND DEVELOPMENT CO. LTD., priority 2004, published 2008):

Assays:
[1] = system: T cells; experiment: T cell adhesion to fibronectin-coated wells after DS pretreatment and activation; type: cell-based, human; conditions: T cells pretreated with DS at 1 ng/ml, 30 minutes; chemoattractants MIP-1β, SDF-1α or RANTES 20 ng/ml each
Protocol: T cells were pretreated with DS9392 (A), DS9267 or DS8892 (B), at 1 ng/ml, 30 minutes incubation for each, and were then seeded on fibronectin (FN)-coated microtiter wells and activated with either PMA (50 ng/ml), anti-CD3 mAb (15 μg/ml), IL-2 (10 IU/ml) or one of the chemoattractants, MIP-Iβ, SDF-Iα or RANTES (20 ng/ml each). T cell adhesion was then measured.
Human T cells were purified from the peripheral blood of healthy donors. Briefly, human peripheral blood was isolated on Ficoll gradients, washed, resuspended in PBS containing 3% heat-inactivated FCS (Bet Haemek, Israel), and incubated (45 min, 37° C., 7% CO2-humidified atmosphere) on nylon-wool columns (NovaMed; Jerusalem, Israel). Non-adherent cells were eluted and washed, and platelets were removed by centrifugation (700 rpm, 15 min, 18° C.). Residual monocytes were removed by incubation of the cells on tissue culture plates (2 h, 37° C.), after which non-adherent cells were collected. The CD3^+ content of these PBLs was >95%.
Without wishing to be limited by a single hypothesis, binding of the DS to moesin would appear to promote inhibition of T-cell adhesion and migration.

[2] = system: Jurkat cells; experiment: 51Cr-labeled Jurkat cell adhesion to fibronectin; type: cell-based; conditions: DS-9267 100 ng/ml; fibronectin 1 μg/ml; adherent cells determined after 30 minutes
Protocol: The amount of adherent cells was determined 30 minutes later. Non-adherent cells were washed away and the remaining bound cells were lysed. The radioactivity of lysates, representing the amount of fibronectin-adherent cells, was determined using a γ-counter. The results represent the percentage of cells that were bound to the wells from total cells that were added to each well.
Jurkat cells, a CD4+ T-lymphoma cell line, were maintained in medium consisted of RPMI 1640 (Bet Haemek, Israel), supplemented with 10% cosmic calf serum (HyClone Laboratories), 2 mM L-glutamin and 1% Pen-Strep (Bet Haemek, Israel), at 37° C., in an atmosphere of 5% CO2.
It was shown that certain heparin- and heparan sulfate-derived DS induced, in a dose-dependent manner, the adhesion of human T cells to both ECM and immobilized fibronectin (6). This adhesion appears to involve β1 integrin recognition and activation and is associated with specific intracellular activation pathways (6). Since moesin is expressed on T cells, antibody to moesin was examined for the potential to block the ability of DS to induce adhesion in T cells.

[3] = target: T1, recombinant moesin (Homo sapiens, UniProt P26038); experiment: Binding of heparin-disaccharide to immobilized recombinant moesin (plate assay, anti-heparan sulfate mAb detection); conditions: plates coated with recombinant moesin or purified BSA, detection with anti-heparan sulfate mAb and anti-rat IgM Ab, duplicate
T1 construct: The plasmid pGEX-KG-human moesin residues 1-577 (pGhuMo); GST (cleaved yes); made in house; host or cells: Escherichia coli
T1 sequence (P26038 whole entry, the tested form may be a part): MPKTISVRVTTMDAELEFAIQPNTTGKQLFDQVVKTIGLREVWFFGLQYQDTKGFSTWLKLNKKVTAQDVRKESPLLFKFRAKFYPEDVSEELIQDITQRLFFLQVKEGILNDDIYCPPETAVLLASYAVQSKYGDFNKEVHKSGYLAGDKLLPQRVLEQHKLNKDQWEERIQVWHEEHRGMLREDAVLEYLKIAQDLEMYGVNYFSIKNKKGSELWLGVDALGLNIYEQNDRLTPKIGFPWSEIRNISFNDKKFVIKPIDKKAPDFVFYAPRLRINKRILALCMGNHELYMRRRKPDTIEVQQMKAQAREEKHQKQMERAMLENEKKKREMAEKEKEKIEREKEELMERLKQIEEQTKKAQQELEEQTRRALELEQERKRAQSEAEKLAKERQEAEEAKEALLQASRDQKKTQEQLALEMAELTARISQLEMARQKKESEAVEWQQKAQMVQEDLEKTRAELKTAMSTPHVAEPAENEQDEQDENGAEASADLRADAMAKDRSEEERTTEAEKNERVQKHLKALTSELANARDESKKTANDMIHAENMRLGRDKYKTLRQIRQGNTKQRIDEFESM
Protocol: Following coating, DS-9392 was added to the plates, incubated and washed. Detection was performed using an anti-heparan sulfate mAb followed by an anti-rat IgM Ab. Each experiment was performed in duplicate. The results represent mean and SD.
The plasmid pGEX-KG-human moesin residues 1-577 (pGhuMo) (provided by Prof. Furthhmayer [Stanford, Calif.]) contains human moesin as a fusion protein to glutathione S-transferase (GST). Escherichia coli (E. coli) bacteria were transformed with pGhuMo and grown in L-broth containing penicillin (100 μg/ml). These bacteria were induced to express the fusion protein with 100 μM isopropyl β-D-thiogalactopyranoside (IPTG). The recombinant protein was bound to a glutathione-agarose column (Sigma) and cleaved with thrombin (Pharmacia; Piscataway, N.J.). The purified protein was dialyzed against PBS at 4° C. and stored at −70^cC. The purity and integrity of the protein were determined by size separation using SDS-polyaclrylamide gel electrophoresis (PAGE), Coomassie blue staining, and Western blotting with the anti-human moesin mAb clone 38/87. The protein was quantitated by densitometric analysis of recombinant moesin and known amounts of BSA, which were used to construct a standard curve.
Since moesin binds to heparin and heparan sulfate (1), disaccharide (DS) derived from heparin was also tested to see if it could also bind to moesin.

[4] = system: HT-29 cells; experiment: TNFα-induced IL-8 / IL-1β secretion from HT-29 cells (ELISA); type: cell-based; conditions: DS-9267 pre-incubated 30 min with increasing concentrations of recombinant human moesin; TNFα-stimulated HT-29 cells, 24 hours
Protocol: Following culture, the cells were pre-incubated for 30 minutes with either anti-moesin or control antibody (anti HSP-60). Then DS-9267 was added for 30 minutes, after which TNFα (200 ng/ml) was added and the cells were incubated for additional 20 hours. Subsequently, the supernatants were collected and the level of IL-8 was determined.
Following culture, the cells were supplemented with fresh medium and the DS-9267 which was pre-incubated for 30 minutes with recombinant moesin at the indicated concentrations was added to all cells except for the controls. The culture was continued for 24 hours. Subsequently, the supernatants were collected and assayed for the concentrations of IL-8 (A) and IL-1β (B).
Epithelial cells were grown as confluent monolayer's in 24-well tissue culture plates. […] Following culture, the supernatants were harvested and analyzed for cytokine secretion. […]
IL-8 concentration was measured by ELISA. […] IL-1β concentration was measured by an ELISA kit (Genzyme, Cambridge, Mass.) according to the manufacturer's instructions.
It has been shown that disaccharide molecules derived from heparin and from heparan sulfate can inhibit the secretion of IL-8 and IL-1β by HT-29 cells. […] Subsequently, the cells were treated with TNFα and the secretion of IL-8 was assessed. […]

Row | Molecule | chemokine-mediated T cell adhesion to fibronectin [1] | Jurkat cell adhesion to fibronectin [2] | binding to immobilized recombinant moesin versus BSA [3] | binding to immobilized recombinant moesin versus BSA ([3]; listed as Heparin-DS) | effect of recombinant moesin on the inhibitory effect of DS on IL-8 and IL-1β secretion [4]
1 | O=C(O)C1=CC(O)C(OS(=O)(=O)O)C(OC2C(COS(=O)(=O)O)OC(O)C(NS(=O)(=O)O)C2O)O1 (stereo not drawn) [DS-9267, 2-O-sulfate-4-deoxy-4-en-iduronic acid-(alpha.-1,4)-2-deoxy-2-N-sulfate-6-O-sulfateglucosamine] | specifically inhibits chemokine-mediated T cell adhesion | induced |  |  | 
2 | O=C(O)C1=CC(O)C(OS(=O)(=O)O)C(OC2C(CO)OC(O)C(NS(=O)(=O)O)C2O)O1 (stereo not drawn) [DS-9392, 2-O-Sulfate-4-deoxy-4-en-iduronic acid-(alpha-1,4)-2-deoxy-2-N-sulfateglucosamine] | specifically inhibits chemokine-mediated T cell adhesion |  | The difference was significant | binds to moesin, and not to BSA | 
3 | recombinant moesin: Recombinant human moesin residues 1-577, expressed in E. coli as GST fusion and cleaved with thrombin (protein, UniProt P26038 2-577, looked up, GST tag removed by thrombin, Recombinant human moesin residues 1-577, expressed in E. coli as GST fusion and cleaved with thrombin) Moesin: PKTISVRVTTMDAELEFAIQPNTTGKQLFDQVVKTIGLREVWFFGLQYQDTKGFSTWLKLNKKVTAQDVRKESPLLFKFRAKFYPEDVSEELIQDITQRLFFLQVKEGILNDDIYCPPETAVLLASYAVQSKYGDFNKEVHKSGYLAGDKLLPQRVLEQHKLNKDQWEERIQVWHEEHRGMLREDAVLEYLKIAQDLEMYGVNYFSIKNKKGSELWLGVDALGLNIYEQNDRLTPKIGFPWSEIRNISFNDKKFVIKPIDKKAPDFVFYAPRLRINKRILALCMGNHELYMRRRKPDTIEVQQMKAQAREEKHQKQMERAMLENEKKKREMAEKEKEKIEREKEELMERLKQIEEQTKKAQQELEEQTRRALELEQERKRAQSEAEKLAKERQEAEEAKEALLQASRDQKKTQEQLALEMAELTARISQLEMARQKKESEAVEWQQKAQMVQEDLEKTRAELKTAMSTPHVAEPAENEQDEQDENGAEASADLRADAMAKDRSEEERTTEAEKNERVQKHLKALTSELANARDESKKTANDMIHAENMRLGRDKYKTLRQIRQGNTKQRIDEFESM |  |  |  |  | antagonized the inhibitory effect of the DS in a dose-dependent manner
